pIC50: −log10 of the molar value. Like-named read-outs stand apart in the source and are kept apart here.
Key:
KDM5A = KDM5A (Homo sapiens (Human), UniProt P29375); test: Biochemical KDM5A Inhibition Assay (HTRF); conditions: KDM5A protein, biotin-labelled H3K4-Me3 substrate
Procedure: Biochemical KDM5A Inhibition Assay
Using 384-well white Greiner784075 (Greiner), representative compounds were characterized for their inhibition of KDM5A using HTRF® technology (Cisbio Bioassays). Briefly, the test compounds, reference compounds, and DMSO control (typical compound concentration range 1 μM-[…], final assay concentration (FAC*) of DMSO 0.5%) were added to 384-well plate by the Echo® acoustic dispensing platform (Labcyte). Five (5) 1l of KDM5A protein (produced by the method described in Nat Chem Biol 12, 531-538 (2016)). (5-20 nM FAC*) in assay buffer (50 mM MES, 50 mM NaCl, 1 mM TCEP, 0.01% v/v Tween 20, 0.03% BSA, pH 6.5) was added to wells and plates were incubated for 10-20 minutes at 25 degrees celsius. Then, 5 μl of alpha-ketoglutaric acid (100 μM FAC*), biotin-labelled H3K4-Me3 substrate (Anaspec Cat #AS-64357-1; 200 nM FAC*), Fe(II)SO4 (100 μM FAC*) and ascorbic acid (2 mM FAC*) in assay buffer was added to wells and plates were incubated for 20 minutes at room temperature. The reaction was stopped with the addition of 10 μl of anti-H3K4-Me2-Eu(K) (Cisbio Bioassays Cat #61KA2KAH; 0.75 nM FAC**)+Streptavidin XL665 (Cisbio Bioassays Cat #610SAXLB; 25 nM FAC**) in HTRF detection buffer (Cisbio Bioassays Cat #62SDBRDF). The mixture was incubated for 30 minutes at room temperature before 340 nm excitation and measurement of dual emission at 620 nm and 665 run. *FAC: final assay concentration calculated based on 10 μl of the assay buffer**FAC: final assay concentration calculated based on 20 μl of the detection buffer
The raw data (a 665 nm and a 620 nm reading from each well) for individual assay plates were analyzed. The ratio of emissions was calculated using the following calculation: Ratio=(665 nm emission/620 nm emission)×10000. […] Compound IC50 values were calculated from graphs of % inhibition plotted against compound concentration, using a four parameter curve fit. [Results]

[1] = Metabolic Stability in Human Liver Microsomes; assay type: in vitro ADME
Procedure: Metabolic Stability in Human Liver Microsomes
Human liver microsome (BD Gentest Corporation, Cat No. #452161) incubations were conducted in duplicate in 96-well plates. Each well contains 40 μL of 0.1 M potassium phosphate buffer (pH 7.4), 4.125 mM MgCl2, 0.625 mg/mL liver microsomes, and test compound (1.25 μM). After 5-min preincubation at 37° C., 10 uL of 5.0 mM NADPH in 0.1M potassium phosphate buffer was added to initiate the enzymatic reaction. The final component concentrations are 0.1M potassium phosphate buffer (pH 7.4), 1.0 mM NADPH, 3.3 mM MgCl2, 0.5 mg/mL liver microsomes, and test compound (1.0 μM). Reactions were terminated at 0 and 60 min by adding 200 μL of ice-cold acetonitrile containing internal standard.
LC-MS/MS analysis was conducted as specified below.
The remaining at 60 min (%) of test compound was calculated from the peak area ratio (test compound/internal standard) of samples collected 0 and 60 min after the start of the reaction according to the formula described below. Remaining at 60 min (%)=peak area ratio of sample collected at 60 min/peak area ratio of sample collected at 0 min×100 [Results]

[2] = Brain Concentration in Mice; assay type: in vivo; conditions: mouse, mice (C57BL/6)
Procedure: Brain Concentration in Mice
Test compounds were orally administered to mice (C57BL/6) at 1 or 3 mg/kg. Brain samples were collected 2 h after the administration and homogenized with 3-fold volumes of distilled water.
LC-MS/MS analysis was conducted as specified below. Standard calibration samples were prepared using the same matrix and analyzed in the same manner.
Standard calibration samples were analyzed to calculate a regression equation from the peak area ratio (test compound/internal standard). The peak area ratio was determined for a measurement sample and assigned to the regression equation to calculate an assay value.

[3] = human, microsomes, 1 h, 1 μM, pH 7.4
[4] = po, orally administered, 1 mg/kg, brain 2 h after administration, read-out: Unbound-Brain Concentration at 2 h at 1 mg/kg
[5] = 0.5 mg/mL liver microsomes, 1.0 μM test compound, 1.0 mM NADPH, 37° C., 60 min

Sequence of KDM5A (P29375 whole entry): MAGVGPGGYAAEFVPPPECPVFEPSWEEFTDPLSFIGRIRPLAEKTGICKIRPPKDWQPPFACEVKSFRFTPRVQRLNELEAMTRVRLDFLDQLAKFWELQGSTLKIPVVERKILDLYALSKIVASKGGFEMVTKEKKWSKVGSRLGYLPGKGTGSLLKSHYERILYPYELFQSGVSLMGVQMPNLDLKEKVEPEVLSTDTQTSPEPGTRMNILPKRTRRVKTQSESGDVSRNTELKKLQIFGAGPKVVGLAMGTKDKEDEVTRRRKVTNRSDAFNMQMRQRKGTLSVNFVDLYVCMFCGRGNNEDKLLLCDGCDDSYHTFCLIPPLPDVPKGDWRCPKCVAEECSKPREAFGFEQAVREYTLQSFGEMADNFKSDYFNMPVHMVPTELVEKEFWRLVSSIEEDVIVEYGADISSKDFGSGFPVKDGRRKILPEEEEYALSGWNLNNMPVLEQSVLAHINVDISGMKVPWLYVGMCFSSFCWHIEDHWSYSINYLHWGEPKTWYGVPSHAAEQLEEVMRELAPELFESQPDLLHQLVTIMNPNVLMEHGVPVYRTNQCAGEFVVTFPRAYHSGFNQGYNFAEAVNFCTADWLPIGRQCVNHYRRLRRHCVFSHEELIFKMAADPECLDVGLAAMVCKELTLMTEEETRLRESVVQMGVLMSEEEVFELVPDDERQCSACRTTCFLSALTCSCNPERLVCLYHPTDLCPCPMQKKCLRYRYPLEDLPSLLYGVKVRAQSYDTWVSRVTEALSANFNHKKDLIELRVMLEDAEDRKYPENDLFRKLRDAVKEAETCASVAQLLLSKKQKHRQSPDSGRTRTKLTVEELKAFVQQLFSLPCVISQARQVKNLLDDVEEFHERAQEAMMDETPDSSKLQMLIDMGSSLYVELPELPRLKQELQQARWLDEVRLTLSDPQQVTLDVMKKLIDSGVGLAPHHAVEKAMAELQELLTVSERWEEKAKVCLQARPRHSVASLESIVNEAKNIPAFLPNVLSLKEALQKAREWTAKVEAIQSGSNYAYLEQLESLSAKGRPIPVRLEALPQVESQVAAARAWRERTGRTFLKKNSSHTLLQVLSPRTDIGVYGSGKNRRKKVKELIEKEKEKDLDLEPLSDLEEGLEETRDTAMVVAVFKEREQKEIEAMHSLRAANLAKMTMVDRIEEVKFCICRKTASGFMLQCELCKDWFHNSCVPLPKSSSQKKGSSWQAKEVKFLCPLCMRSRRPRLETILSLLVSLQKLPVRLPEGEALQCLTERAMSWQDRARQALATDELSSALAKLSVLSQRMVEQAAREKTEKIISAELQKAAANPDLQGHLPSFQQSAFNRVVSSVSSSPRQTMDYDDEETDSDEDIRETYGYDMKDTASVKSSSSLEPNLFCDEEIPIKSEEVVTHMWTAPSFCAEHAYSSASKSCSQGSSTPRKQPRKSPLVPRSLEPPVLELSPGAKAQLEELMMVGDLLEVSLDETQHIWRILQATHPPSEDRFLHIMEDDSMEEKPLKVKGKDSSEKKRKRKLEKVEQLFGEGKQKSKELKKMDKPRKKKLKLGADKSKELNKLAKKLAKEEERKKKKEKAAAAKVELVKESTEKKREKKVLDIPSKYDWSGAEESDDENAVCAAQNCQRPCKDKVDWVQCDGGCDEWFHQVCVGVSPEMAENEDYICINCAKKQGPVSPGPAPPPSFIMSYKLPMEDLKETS

With `CC(C)n1cnc(C(=O)N2C[C@@H]3[C@H](C2)[C@H]3C2=NOC(C)(C)C2)c1` [Example 1, [(1R,5S,6r)-6-(5,5-dimethyl-4,5-dihydro-1,2-oxazol-3-yl)-3-azabicyclo[3.1.0]hex-3-yl](1-isopropyl-1H-imidazol-4-yl)methanone] the pIC50 (KDM5A) was 7.70, the “Metabolic stability in human liver microsomes (% remaining at 60 min)” value (from here on “Metabolic stability … (% remaining at 60 min)”) [1, 3] was 95% and the concentration at 2 h ([2]; brain, oral, 2 h, values with * obtained by proportional calculation from the 3 mg/kg data, read-out: Unbound-Brain Concentration at 2 h at 1 mg/kg) was 93.7 ng/g.
With `CC[C@H](C)n1cnc(C(=O)N2C[C@@H]3[C@H](C2)[C@H]3C2=NOC(C)(C)C2)c1` [Example 12, {1-[(2S)-butan-2-yl]-1H-imidazol-4-yl}[(1R,5S,6S)-6-(5,5-dimethyl-4,5-dihydro-1,2-oxazol-3-yl)-3-azabicyclo[3.1.0]hex-3-yl]methanone] the pIC50 (KDM5A) was 7.22, the “Metabolic stability … (% remaining at 60 min)” value [1, 3] was 100% and the concentration at 2 h [2, 4] was 10.8 ng/g.
In the case of `CC1(C)CC([C@H]2[C@@H]3CN(C(=O)c4cn(C5(C)CC5)cn4)C[C@@H]32)=NO1` [Example 33, [(1R,5S,6r)-6-(5,5-dimethyl-4,5-dihydro-1,2-oxazol-3-yl)-3-azabicyclo[3.1.0]hex-3-yl][1-(1-methylcyclopropyl)-1H-imidazol-4-yl]methanone], the pIC50 (KDM5A) was 7.52, the “Metabolic stability … (% remaining at 60 min)” value [1, 3] was 103% and the concentration at 2 h [2, 4] was 62.1 ng/g.
For `CC(C)n1cnc(C(=O)N2C[C@@H]3[C@H](C2)[C@H]3C(=O)C2CC2)c1` [Example 75, cyclopropyl{(1R,5S,6r)-3-[(1-isopropyl-1H-imidazol-4-yl)carbonyl]-3-azabicyclo[3.1.0]hex-6-yl}methanone], the pIC50 (KDM5A) was 6.40 and the “Metabolic stability … (% remaining at 60 min)” value ([1]; human, microsomes, 1 h) was 102%.
For `CC(C)n1cnc(C(=O)N2C[C@@H]3[C@H](C2)[C@@]3(C)C2=NOC3(CC3)C2)c1` [Example 84, (1-isopropyl-1H-imidazol-4-yl)[(1R,5S,6r)-6-methyl-6-(4-oxa-5-azaspiro[2.4]hept-5-en-6-yl)-3-azabicyclo[3.1.0]hex-3-yl]methanone], the pIC50 (KDM5A) was 7.52 and the “Metabolic stability … (% remaining at 60 min)” value [1, 5] was 92%.
With `CC(C)n1cnc(C(=O)N2C[C@@H]3[C@H](C2)[C@@]3(C)C(=O)NC(C)(C)C)c1` [Example 87, (1R,5S,6r)-N-tert-butyl-6-methyl-3-[1-(propan-2-yl)-1H-imidazole-4-carbonyl]-3-azabicyclo[3.1.0]hexane-6-carboxamide] the pIC50 (KDM5A) was 7.40 and the “Metabolic stability … (% remaining at 60 min)” value [1, 5] was 99%.
With `CC(c1cc(C(=O)N2C[C@@H]3C(C4=NOC(C)(C)C4)[C@@H]3C2)n[nH]1)C1CC1` (stereo partly drawn) [Example 90, [5-(1-cyclopropylethyl)-1H-pyrazol-3-yl][(1R,5S,6r)-6-(5,5-dimethyl-4,5-dihydro-1,2-oxazol-3-yl)-3-azabicyclo[3.1.0]hex-3-yl]methanone] the pIC50 (KDM5A) was 7.30 and the “Metabolic stability … (% remaining at 60 min)” value [1, 5] was 100%.
For `CC1CC(C2[C@H]3CN(C(=O)c4cc(C(C)C)[nH]n4)C[C@@H]23)=NO1` (stereo partly drawn) [Example 93, (5-isopropyl-1H-pyrazol-3-yl)[(1R,5S,6r)-6-(5-methyl-4,5-dihydro-1,2-oxazol-3-yl)-3-azabicyclo[3.1.0]hex-3-yl]methanone], the pIC50 (KDM5A) was 6.70 and the “Metabolic stability … (% remaining at 60 min)” value ([1]; human, microsomes, 1 h) was 86%.
In the case of `CC(C)c1cc(C(=O)N2C[C@@H]3[C@H](C2)[C@H]3C2=NO[C@H]3C[C@@H]23)n[nH]1` [Example 96, (5-isopropyl-1H-pyrazol-3-yl){(1R,5S,6r)-6-[(1S,5S)-2-oxa-3-azabicyclo[3.1.0]hex-3-en-4-yl]-3-azabicyclo[3.1.0]hex-3-yl}methanone], the pIC50 (KDM5A) was 7.52 and the “Metabolic stability … (% remaining at 60 min)” value ([1]; human, microsomes, 1 h) was 83%.
With `CCN1C([C@H]2[C@@H]3CN(C(=O)c4cc(C(C)C)[nH]n4)C[C@@H]32)=NOC1(C)C` [Example 110, [(1R,5S,6r)-6-(4-ethyl-5,5-dimethyl-4,5-dihydro-1,2,4-oxadiazol-3-yl)-3-azabicyclo[3.1.0]hex-3-yl](5-isopropyl-1H-pyrazol-3-yl)methanone] the pIC50 (KDM5A) was 7.30 and the “Metabolic stability … (% remaining at 60 min)” value ([1]; human, microsomes, 1 h) was 85%.
For `Cc1nnc([C@H]2[C@@H]3CN(C(=O)c4cc(C(C)C)[nH]n4)C[C@@H]32)o1` [Example 119, (5-isopropyl-1H-pyrazol-3-yl)[(1R,5S,6r)-6-(5-methyl-1,3,4-oxadiazol-2-yl)-3-azabicyclo[3.1.0]hex-3-yl]methanone], the pIC50 (KDM5A) was 6.52 and the “Metabolic stability … (% remaining at 60 min)” value ([1]; human, microsomes, 1 h) was 102%.
For `CC(C)c1cc(C(=O)N2C[C@@H]3[C@H](C2)[C@H]3c2nncn2-c2ccccc2)n[nH]1` [Example 121, (5-isopropyl-1H-pyrazol-3-yl)[(1R,5S,6r)-6-(4-phenyl-4H-1,2,4-triazol-3-yl)-3-azabicyclo[3.1.0]hex-3-yl]methanone], the pIC50 (KDM5A) was 7.40 and the “Metabolic stability … (% remaining at 60 min)” value ([1]; human, microsomes, 1 h) was 114%.
With `Cc1nnc([C@H]2[C@@H]3CN(C(=O)c4cc(C(C)C)[nH]n4)C[C@@H]32)n1C1CCC1` [Example 124, [(1R,5S,6r)-6-(4-cyclobutyl-5-methyl-4H-1,2,4-triazol-3-yl)-3-azabicyclo[3.1.0]hex-3-yl](5-isopropyl-1H-pyrazol-3-yl)methanone] the pIC50 (KDM5A) was 7.40 and the “Metabolic stability … (% remaining at 60 min)” value ([1]; human, microsomes, 1 h) was 97%.
In the case of `COc1ccc2nnc([C@H]3[C@@H]4CN(C(=O)c5cc(C(C)C)[nH]n5)C[C@@H]43)n2c1` [Example 131, (5-isopropyl-1H-pyrazol-3-yl)[(1R,5S,6r)-6-(6-methoxy[1,2,4]triazolo[4,3-a]pyridin-3-yl)-3-azabicyclo[3.1.0]hex-3-yl]methanone], the pIC50 (KDM5A) was 8.00 and the “Metabolic stability … (% remaining at 60 min)” value ([1]; human, microsomes, 1 h) was 84%.
In the case of `CC(C)NC(=O)[C@H]1[C@@H]2CN(C(=O)c3cc(C(C)C)[nH]n3)C[C@@H]21` [Example 136, (1R,5S,6r)-N-(propan-2-yl)-3-[5-(propan-2-yl)-1H-pyrazole-3-carbonyl]-3-azabicyclo[3.1.0]hexane-6-carboxamide], the pIC50 (KDM5A) was 7.30 and the “Metabolic stability … (% remaining at 60 min)” value ([1]; human, microsomes, 1 h) was 97%.
For `C[C@]1(C2=NOC3(CC3)C2)[C@@H]2CN(C(=O)c3cc(C4CC4)[nH]n3)C[C@@H]21` [Example 144, (5-cyclopropyl-1H-pyrazol-3-yl)[(1R,5S,6r)-6-methyl-6-(4-oxa-5-azaspiro[2.4]hept-5-en-6-yl)-3-azabicyclo[3.1.0]hex-3-yl]methanone], the pIC50 (KDM5A) was 7.70 and the “Metabolic stability … (% remaining at 60 min)” value [1, 5] was 101%.
With `CC(C)c1cc(C(=O)N2C[C@@H]3[C@H](C2)[C@@]3(C)C(=O)NC(C)(C)C)n[nH]1` [Example 145, (1R,5S,6r)-N-tert-butyl-6-methyl-3-[5-(propan-2-yl)-1H-pyrazole-3-carbonyl]-3-azabicyclo[3.1.0]hexane-6-carboxamide] the pIC50 (KDM5A) was 7.05 and the “Metabolic stability … (% remaining at 60 min)” value ([1]; human, microsomes, 1 h) was 99%.
For `CC(C)c1cc(C(=O)N2CC[C@@H](NC(=O)C3CC3)C2)[nH]n1` [comparative compound, (R)—N-(1-(3-isopropyl-1H-pyrazole-5-carbonyl)pyrrolidin-3-yl)cyclopropane carboxamide, reference compound], the concentration at 2 h ([2]; brain, oral, 2 h, comparative compound, dose not restated in the sentence, read-out: Unbound-Brain Concentration at 2 h) was 2.5 ng/g.
